Measured values reported in patent US11661410B2 (GLOBAL BLOOD THERAPEUTICS, INC., priority 2017, dated 2023).
Read-outs that look alike come from different tables or passages of the source. One block for each molecule: values may come before it.

Tests used:
[1] = target: muscarinic M2 receptor (Homo sapiens (Human), UniProt P08172); experiment: Safety pharmacological profiling: muscarinic M2 receptor ligand binding; settings: compound at 10 μM, in duplicate; ligand binding to cell membranes; read-out: Muscarinic M2 percent inhibition
[2] = target: G9a (Homo sapiens (Human), UniProt Q96KQ7); experiment: G9a AlphaLISA enzymatic activity assay; assay type: biochemical
[3] = target: mu (μ) opiate (OP3) receptor (Homo sapiens (Human), UniProt P35372); experiment: biochemical; assay type: binding; settings: read-out: Mu Opiate percent inhibition
[4] = G9a AlphaLISA, negative log of the IC50 value in molar

Sequence of G9a (Q96KQ7 whole entry): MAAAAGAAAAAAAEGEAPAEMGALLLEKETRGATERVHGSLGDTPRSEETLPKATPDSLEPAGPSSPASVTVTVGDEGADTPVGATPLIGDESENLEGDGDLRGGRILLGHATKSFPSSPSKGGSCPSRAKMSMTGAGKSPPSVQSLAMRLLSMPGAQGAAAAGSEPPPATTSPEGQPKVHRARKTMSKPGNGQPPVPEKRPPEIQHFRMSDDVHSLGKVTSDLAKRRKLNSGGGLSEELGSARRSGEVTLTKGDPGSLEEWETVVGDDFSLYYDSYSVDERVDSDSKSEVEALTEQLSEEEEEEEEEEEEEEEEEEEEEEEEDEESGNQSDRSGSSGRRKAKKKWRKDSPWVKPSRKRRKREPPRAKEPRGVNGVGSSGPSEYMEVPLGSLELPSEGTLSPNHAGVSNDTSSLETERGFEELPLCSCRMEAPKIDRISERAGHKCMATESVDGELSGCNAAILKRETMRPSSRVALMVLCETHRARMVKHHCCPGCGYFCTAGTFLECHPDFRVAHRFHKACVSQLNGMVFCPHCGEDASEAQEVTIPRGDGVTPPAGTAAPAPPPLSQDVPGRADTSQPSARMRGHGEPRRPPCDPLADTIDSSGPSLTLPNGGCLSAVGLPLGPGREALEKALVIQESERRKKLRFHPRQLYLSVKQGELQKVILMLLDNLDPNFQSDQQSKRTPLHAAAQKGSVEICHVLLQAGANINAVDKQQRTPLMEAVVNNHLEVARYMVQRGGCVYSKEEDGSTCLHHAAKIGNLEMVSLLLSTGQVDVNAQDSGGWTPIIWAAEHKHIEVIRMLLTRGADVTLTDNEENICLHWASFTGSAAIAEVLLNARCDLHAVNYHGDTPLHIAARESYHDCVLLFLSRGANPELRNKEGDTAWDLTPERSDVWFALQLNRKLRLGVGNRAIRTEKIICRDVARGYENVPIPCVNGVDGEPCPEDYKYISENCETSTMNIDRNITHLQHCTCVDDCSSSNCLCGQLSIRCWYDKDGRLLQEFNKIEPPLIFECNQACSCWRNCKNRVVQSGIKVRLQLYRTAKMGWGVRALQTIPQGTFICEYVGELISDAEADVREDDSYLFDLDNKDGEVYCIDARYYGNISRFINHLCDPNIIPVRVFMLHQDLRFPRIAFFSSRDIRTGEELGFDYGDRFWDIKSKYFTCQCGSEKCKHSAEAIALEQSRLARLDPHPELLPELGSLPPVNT
Sequence of muscarinic M2 receptor (P08172 whole entry): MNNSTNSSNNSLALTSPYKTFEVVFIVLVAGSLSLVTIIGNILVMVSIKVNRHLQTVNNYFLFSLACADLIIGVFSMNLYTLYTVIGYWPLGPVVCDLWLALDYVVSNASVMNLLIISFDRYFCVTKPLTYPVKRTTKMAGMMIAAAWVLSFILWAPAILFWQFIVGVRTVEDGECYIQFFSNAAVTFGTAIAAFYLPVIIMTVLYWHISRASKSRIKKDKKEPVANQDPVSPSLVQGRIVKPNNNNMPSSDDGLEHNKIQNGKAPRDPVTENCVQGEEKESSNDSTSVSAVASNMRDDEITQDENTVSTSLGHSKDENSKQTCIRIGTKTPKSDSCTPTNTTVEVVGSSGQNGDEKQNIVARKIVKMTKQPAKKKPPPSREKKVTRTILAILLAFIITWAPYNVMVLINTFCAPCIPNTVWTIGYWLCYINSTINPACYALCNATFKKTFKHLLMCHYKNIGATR

Molecule: COc1cc2nc3c(c(NC4CCN(C(C)C)CC4)c2cc1OC)CCC3
- inhibition at 10 µM [1]: 78%

- pIC50 [2, 4]: 7
Molecule: CCOc1cc2nc3c(c(N[C@@H]4CCCNC4)c2cc1OC)CCC3 [Example 407, (3R)-N-{6-ethoxy-7-methoxy-1H,2H,3H-cyclopenta[b]quinolin-9-yl}piperidin-3-amine]

- pIC50 [2, 4]: 6.9
Molecule: COc1cc2nc3c(c(N[C@@H]4CNC[C@H](C)C4)c2cc1OC)CCC3 [Example 408, (3S,5R)-N-{6,7-dimethoxy-1H,2H,3H-cyclopenta[b]quinolin-9-yl}-5-methylpiperidin-3-amine]

- pIC50 [2, 4]: 7.9
Molecule: COc1cc2nc3c(c(N[C@H]4CNC[C@H](C)C4)c2cc1OC)CCC3 [Example 409, (3R,5R)-N-{6,7-dimethoxy-1H,2H,3H-cyclopenta[b]quinolin-9-yl}-5-methylpiperidin-3-amine]

- IC50 [2, 4]: > 10 µM
Molecule: COc1cc2nc3c(c(N[C@H]4CNCC(F)(F)C4)c2cc1OC)CCC3 [Example 410, (3R)-N-{6,7-dimethoxy-1H,2H,3H-cyclopenta[b]quinolin-9-yl}-5,5-difluoropiperidin-3-amine]

- pIC50 [2, 4]: 6.3
Molecule: COc1cc2nc3c(c(NC[C@@H]4C[C@H](F)CN4)c2cc1OC)CCC3 [Example 411, N-{[(2S,4S)-4-fluoropyrrolidin-2-yl]methyl}-6,7-dimethoxy-1H,2H,3H-cyclopenta[b]quinolin-9-amine]

- pIC50 [2, 4]: 6.5
Molecule: COc1cc2nc3c(c(N[C@H]4CNC[C@@H](F)C4)c2cc1OC)CCC3 [Example 412, (3R,5S)-N-{6,7-dimethoxy-1H,2H,3H-cyclopenta[b]quinolin-9-yl}-5-fluoropiperidin-3-amine]

- IC50 [2, 4]: > 10 µM
Molecule: COc1cc2nc3c(c(N[C@@H]4CNCC(F)(F)C4)c2cc1OC)CCC3 [Example 413, (3S)-N-{6,7-dimethoxy-1H,2H,3H-cyclopenta[b]quinolin-9-yl}-5,5-difluoropiperidin-3-amine]

- pIC50 [2, 4]: 7.2
Molecule: COc1cc2nc3c(c(N[C@H]4CNCC(C)(C)C4)c2cc1OC)CCC3 [Example 414, (3R)-N-{6,7-dimethoxy-1H,2H,3H-cyclopenta[b]quinolin-9-yl}-5,5-dimethylpiperidin-3-amine]

- IC50 [2, 4]: > 10 µM
Molecule: COc1cc2nc3c(c(N[C@@H]4CNCC(C)(C)C4)c2cc1OC)CCC3 [Example 415, (3S)-N-{6,7-dimethoxy-1H,2H,3H-cyclopenta[b]quinolin-9-yl}-5,5-dimethylpiperidin-3-amine]

- pIC50 [2, 4]: 6.9
Molecule: COc1cc2nc3c(c(N[C@H]4CNC[C@H](F)C4)c2cc1OC)CCC3 [Example 416, (3R,5R)-N-{6,7-dimethoxy-1H,2H,3H-cyclopenta[b]quinolin-9-yl}-5-fluoropiperidin-3-amine]

Molecule: COc1cc2c(NC(C)C)c3c(nc2cc1OCCCN1CCCC1)CCC3 [drawing 582]
- inhibition at 10 µM [1]: 51%

Molecule: CCNc1c2c(nc3cc(OCCCN4CCCC4)c(OC)cc13)CCC2 [drawing 583]
- inhibition at 10 µM [1]: 62%

Molecule: COc1cc2nc3c(c(NCC4CNC4)c2cc1OC)CCC3 [drawing 585]
- inhibition at 10 µM [1]: 65%

Molecule: COc1cc2nc3c(c(N[C@@H]4CCCNC4)c2cc1OC)CCC3 [drawing 586]
- inhibition at 10 µM [1]: 76%

Molecule: COc1cc2nc3c(c(NC4CCNCC4)c2cc1OC)CCC3 [drawing 587]
- inhibition at 10 µM [1]: 62%

Molecule: COc1cc2nc3c(c(N[C@H]4CNC[C@@H](C)C4)c2cc1OC)CCC3 [drawing 588]
- inhibition at 10 µM [1]: 75%

Molecule: COc1cc2nc3c(c(N[C@@H]4CCCCNC4)c2cc1OC)CCC3 [drawing 589]
- inhibition at 10 µM [1]: 80%

Molecule: COc1cc2c(NC(C)C)c3c(nc2cc1OCCCN1CCCC1)CCC3 [drawing 590]
- inhibition at 10 µM [3]: 92%

Molecule: CCNc1c2c(nc3cc(OCCCN4CCCC4)c(OC)cc13)CCC2 [drawing 591]
- inhibition at 10 µM [3]: 92%

Molecule: COc1cc2nc3c(c(NCC4CNC4)c2cc1OC)CCC3 [drawing 593]
- inhibition at 10 µM [3]: 12%

Molecule: COc1cc2nc3c(c(N[C@@H]4CCCNC4)c2cc1OC)CCC3 [drawing 594]
- inhibition at 10 µM [3]: 44%

Molecule: COc1cc2nc3c(c(NC4CCNCC4)c2cc1OC)CCC3 [drawing 595]
- inhibition at 10 µM [3]: 48%

Molecule: COc1cc2nc3c(c(N[C@H]4CNC[C@@H](C)C4)c2cc1OC)CCC3 [drawing 596]
- inhibition at 10 µM [3]: 23%

Molecule: COc1cc2nc3c(c(N[C@@H]4CCCCNC4)c2cc1OC)CCC3 [drawing 597]
- inhibition at 10 µM [3]: 73%

Molecule: N-[(azetidin-3-yl)methyl]-6,7-dimethoxy-1H,2H,3H-cyclopenta[b]quinolin-9-amine—2HCl [Example 8]
- pIC50 [2]: 7.27
